# Test results reported in patent publication US20070015232A1, “Mitotic index assay” (DiscoveRx, Inc., priority 2005, published 2007).
# Legend:
# [1] = system: C2C12+EA-NLS/NRS+GR-PL cells; assay: EFC mitotic index assay, C2C12+EA-NLS/NRS+GR-PL cells (Stanford GR cells); format: cell-based, mouse; settings: for Avg luminescence readout / R1 luminescence readout / R3 luminescence readout / Ratio (Avg vs 0 conc): 24 hours, 30 min read
# Protocol: (§1) In all experiments described, 20,000 cells/well were plated in a 96 well Corning clear bottom white plate in a total volume of 100 μL. The cells were treated for 24 hours with 5 μL of either the appropriate vehicle control or varying concentrations of the six compounds listed above. The next day, 100 μL of Tropix/ABI Gal screen cell lysis buffer/substrate mixture (24:1 ratio of component) was added to the cells/media and the plate was read on the Victor II luminescent plate reader at 30, 60 and 120 minutes after the lysis/substrate addition.
# (§2) The initial test of the cell cycle arresting compounds was performed on a double stable cell line having both of the constructs expressing the EA-NLS/NRS and GR-PL. (PL is β-galactosidase enzyme donor fragment and EA is the enzyme acceptor fragment available from DiscoveRx, Fremont, CA.). The parental line, C2C12 is derived from mouse muscle cells. In the experiments in which EA-NLS/NRS and GR-PL are expressed in the C2C12 parental cell line, the constructs were generated by subcloning the human GR sequence into a MFG-based retroviral vector that had been molecularly altered in a lab at Stanford. An MFG vector is described in U.S. Pat. No. 6,544,771. The EA-NLS/NRS fragment was subcloned into a wzl-based retroviral vector again molecularly altered in a lab at Stanford. In the experiments performed using a CHO-K1 parental cell line background the EA-NLS/NRS was subcloned into the Kpn I and Xba I sites of pcDNA3.1 Hygro vector from Invitrogen (catalog #V870-20). The plasmid was introduced into the cells via FuGene6 (Roche) transfection reagent. Cells were selected in the presence of 250 μg/mL of Hygromycin and single cell clones isolated that expressed the EA-NLS/NRS. The human GR gene was cloned by PCR and subcloned into the Xho I and Bam HI sites of the DiscoveRx vector-pCMV-myc-PL (C3). The plasmid was introduced into the selected EA-NLS/NRS expressing clone isolated above by FuGene 6 transfection. Another round of screening in the presence of 300-500 μg/mL of G418 was used to select GR-PL transfected clones. Clonal selection was performed to finally identify the clone that was used in these studies. In the studies using the CHO-K1+cyto-EA and cJUN-PL, the same Invitrogen pcDNA3.1 Hygro vector was used to express EA. In this case, the EA fragment was subcloned into the Kpn I/Not I sites of pcDNA3.1 Hygro. The plasmid DNA was introduced as described above using FuGene6 reagent. Cells were selected in the presence of 250 μg/mL of hygromycin and clonal selection was performed. The c-Jun gene was generated by PCR using an existing template copy of the gene and then subcloned into the Xho I/Bam HI sites of pCMV-PL-myc (C3).
# [2] = system: CHO-K1+EA-NLS/NRS+GR-PL cells; assay: EFC mitotic index assay, CHO-K1+EA-NLS/NRS+GR-PL cells, antibiotic selected pool (DX M19/GR pool); format: cell-based; settings: for Avg luminescence readout / R1 luminescence readout / R3 luminescence readout / Ratio (Avg vs 0 conc): 24 hours, 30 min read
# Protocol: as §1, §2
# In the next experiment, an antibiotic selected pool population of CHO-K1 cells that express EA-NLS/NRS and GR-PL were tested with the same six set of cell cycle blocking compounds. […] FIGS. 2a and 2b show the immunofluorescence localization of EA and GR-PL in that the blue DAPI nuclear staining can be seen to be concentrated in the nucleus, while the green fluorescein stain on the antibody (from Abcam PLC) to the glucocorticoid receptor is seen in the cytoplasm. […] Again, six tables are presented one for each of the six drugs tested.
# This only occurs with compounds that block the cells in mitosis, allowing EA and ProLabel to complement.
# [3] = system: CHO-K1+cyto-EA cells transfected with cJUN-PL; assay: EFC mitotic index assay, CHO-K1+cyto-EA cells transiently transfected with cJUN-PL; format: cell-based; settings: for Avg luminescence readout / R1 luminescence readout / R3 luminescence readout / Ratio (Avg vs 0 conc): overnight
# Protocol: as §2
# To further test the concept of sequestering of one β-galactosidase enzyme fragment in the nucleus (in this case PL) while localizing the other component in the cytoplasm (in this case EA) the following experiment was carried out. […] The cyto-EA cells were transiently transfected with cJUN-PL plasmid DNA. Two days after the transfection, the cells were re-plated into a 96 well Corning white clear bottom multiwell plate at 20,000 cells/well. The cells were allowed to adhere overnight and the next day were treated with titrating concentrations of the six different cell cycle blocking compounds. The incubation was carried out overnight. The next day the media was removed from the cells and 100 μL of Tropix/ABI Gal screen cell lysis/substrate reagent was added to the cells.
compound,measurement,setting,value
CC[C@]1(O)C[C@@H]2CN(CCc3c([nH]c4ccccc34)[C@@](C(=O)OC)(c3cc4c(cc3OC)N(C)[C@H]3[C@@](O)(C(=O)OC)[C@H](OC(C)=O)[C@]5(CC)C=CCN6CC[C@]43[C@@H]65)C2)C1 [Vinblastine],increase in EFC activity (in words),[1],no increase in EFC activity
same,Avg luminescence readout,[1]; 1.0 μg/mL,10744
same,R1 luminescence readout,[1]; 1.0 μg/mL,10417.0
same,R3 luminescence readout,[1]; 1.0 μg/mL,11042
same,Ratio (Avg vs 0 conc),[1]; 1.0 μg/mL,1
same,Avg luminescence readout,[1]; 3.3 μg/mL,12078
same,R1 luminescence readout,[1]; 3.3 μg/mL,10894.0
same,R3 luminescence readout,[1]; 3.3 μg/mL,13468
same,Ratio (Avg vs 0 conc),[1]; 3.3 μg/mL,1
same,Avg luminescence readout,[1]; 10.0 μg/mL,10751
same,R1 luminescence readout,[1]; 10.0 μg/mL,10269.0
same,R3 luminescence readout,[1]; 10.0 μg/mL,11281
same,Ratio (Avg vs 0 conc),[1]; 10.0 μg/mL,1
same,Avg luminescence readout,[1]; 30.0 μg/mL,10933
same,R1 luminescence readout,[1]; 30.0 μg/mL,10692.0
same,R3 luminescence readout,[1]; 30.0 μg/mL,11196
same,Ratio (Avg vs 0 conc),[1]; 30.0 μg/mL,1
same,Avg luminescence readout,[2]; 1.0 μg/mL,4335
same,R1 luminescence readout,[2]; 1.0 μg/mL,4205
same,R3 luminescence readout,[2]; 1.0 μg/mL,4277
same,Ratio (Avg vs 0 conc),[2]; 1.0 μg/mL,1
same,Avg luminescence readout,[2]; 3.3 μg/mL,4345
same,R1 luminescence readout,[2]; 3.3 μg/mL,4410
same,R3 luminescence readout,[2]; 3.3 μg/mL,4436
same,Ratio (Avg vs 0 conc),[2]; 3.3 μg/mL,1
same,Avg luminescence readout,[2]; 10.0 μg/mL,4078
same,R1 luminescence readout,[2]; 10.0 μg/mL,3907
same,R3 luminescence readout,[2]; 10.0 μg/mL,4201
same,Ratio (Avg vs 0 conc),[2]; 10.0 μg/mL,1
same,Avg luminescence readout,[2]; 30.0 μg/mL,5919
same,R1 luminescence readout,[2]; 30.0 μg/mL,5161
same,R3 luminescence readout,[2]; 30.0 μg/mL,6583
same,Ratio (Avg vs 0 conc),[2]; 30.0 μg/mL,1
"C[C@@]1(CO)[C@H](O)CC[C@@]2(C)[C@H]1CC[C@H]1C[C@@H]3C[C@@]12CC[C@]3(O)CO [Aphidicolin, aphidicolin]",Avg luminescence readout,[1]; 0.3 μM,3444
same,R1 luminescence readout,[1]; 0.3 μM,3081
same,R3 luminescence readout,[1]; 0.3 μM,3500
same,Ratio (Avg vs 0 conc),[1]; 0.3 μM,1
same,Avg luminescence readout,[1]; 1 μM,3307
same,R1 luminescence readout,[1]; 1 μM,3250
same,R3 luminescence readout,[1]; 1 μM,3388
same,Ratio (Avg vs 0 conc),[1]; 1 μM,1
same,Avg luminescence readout,[1]; 3.3 μM,3132
same,R1 luminescence readout,[1]; 3.3 μM,3171
same,R3 luminescence readout,[1]; 3.3 μM,3105
same,Ratio (Avg vs 0 conc),[1]; 3.3 μM,1
same,Avg luminescence readout,[1]; 10.0 μM,3413
same,R1 luminescence readout,[1]; 10.0 μM,2827
same,R3 luminescence readout,[1]; 10.0 μM,3765
same,Ratio (Avg vs 0 conc),[1]; 10.0 μM,1
same,Avg luminescence readout,[2]; 0.3 μM,5508
same,R1 luminescence readout,[2]; 0.3 μM,5478
same,R3 luminescence readout,[2]; 0.3 μM,5469
same,Ratio (Avg vs 0 conc),[2]; 0.3 μM,1
same,Avg luminescence readout,[2]; 1 μM,5604
same,R1 luminescence readout,[2]; 1 μM,5656
same,R3 luminescence readout,[2]; 1 μM,5491
same,Ratio (Avg vs 0 conc),[2]; 1 μM,1
same,Avg luminescence readout,[2]; 3.3 μM,4561
same,R1 luminescence readout,[2]; 3.3 μM,4392
same,R3 luminescence readout,[2]; 3.3 μM,4749
same,Ratio (Avg vs 0 conc),[2]; 3.3 μM,0
same,Avg luminescence readout,[2]; 10.0 μM,6941
same,R1 luminescence readout,[2]; 10.0 μM,7213
same,R3 luminescence readout,[2]; 10.0 μM,6651
same,Ratio (Avg vs 0 conc),[2]; 10.0 μM,1
same,increase in EFC activity (in words),[2]; overnight treatment,did not cause an increase in EFC activity
same,Avg luminescence readout,[3]; 1.5 μg/mL,7545
same,R1 luminescence readout,[3]; 1.5 μg/mL,7218
same,R3 luminescence readout,[3]; 1.5 μg/mL,7576
same,Ratio (Avg vs 0 conc),[3]; 1.5 μg/mL,0.9
same,Avg luminescence readout,[3]; 4.4 μg/mL,9193
same,R1 luminescence readout,[3]; 4.4 μg/mL,9492
same,R3 luminescence readout,[3]; 4.4 μg/mL,9245
same,Ratio (Avg vs 0 conc),[3]; 4.4 μg/mL,1.1
same,Avg luminescence readout,[3]; 13.3 μg/mL,7027
same,R1 luminescence readout,[3]; 13.3 μg/mL,6677
same,R3 luminescence readout,[3]; 13.3 μg/mL,7784
same,Ratio (Avg vs 0 conc),[3]; 13.3 μg/mL,0.8
same,Avg luminescence readout,[3]; 40.0 μg/mL,9131
same,R1 luminescence readout,[3]; 40.0 μg/mL,8645
same,R3 luminescence readout,[3]; 40.0 μg/mL,9818
same,Ratio (Avg vs 0 conc),[3]; 40.0 μg/mL,1.0
same,increase in EFC activity (in words),[3]; overnight incubation,negligible increase in EFC activity
